In patent US5594009A, “Fused pyrrolocarbazoles” (priority 1995, dated 1997):

Legend:
protein kinase C = test: PKC Activity Inhibition Assay; format: biochemical
Procedure: Fused pyrrolocarbazoles inhibited the activity of protein kinase C (Table VI). The protein kinase C assay has been disclosed (Murakata et al., U.S. Pat. No. 4,923,986; Kikkawa et al., J. Biol. Chem. 257:13341-13348 (1982)). The assay was performed with several concentrations of fused pyrrolocarbazoles. The concentration at which protein kinase C was 50% inhibited (IC50) was determined.

[1] = tested on: ChAT activity of basal forebrain cultures; test: Basal Forebrain ChAT Activity Assay; format: cell-based, rat
Procedure, shortened: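 Basal forebrain neurons from E17–18 rat embryos were Dispase-dissociated and plated at 5×10^4 cells/well on poly-ornithine/laminin. Cultures were kept in serum-free N2 medium with 0.05% BSA at 37° C. ChAT activity was measured 5 days after plating as the read-out for compound-induced increase.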

[2] = tested on: choline acetyltransferase (ChAT) activity in dissociated rat embryonic spinal cord culture; test: Spinal Cord ChAT Activity Assay; format: cell-based; conditions: ChAT measured after 48 hours
AT-2 cells = test: Inhibition of Growth of Prostate Cancer Cell Line (MTS assay); format: cell-based; conditions: 72 h; 3 days, MTS; read-out: AT-2 cell growth IC50
Procedure: AT-2 cells are a prostate cancer cell sub-line derived from the Dunning H tumor, graciously provided to us by Dr. John Isaacs (John Hopkins, M. D.). Unlike the Dunning H tumor cells, AT-2 cells can be grown in vitro.
Methods: At-2 cells ([…]) were plated on tissue culture plastic in 96-well plates in the presence of RPMI-1640 medium containing 10% fetal calf serum, 250 nM dexamethasone, 2 mM glutamine, 1 mM sodium pyruvate, and penicillin/streptomycin antibiotics. The next day, compounds were added at 4 concentrations (10, 1, 0.1, 0.01 μM) to determine the approximate IC50 range. Cultures were assayed 3 days later for cell number using the MTS [(3-(4,5-dimethylthiazol-2-yl)-5-(3-carboxymethoxyphenyl)-2-(4-sulfophenyl)-2H-tetrazolium, inner salt)] assay. The MTS assay (purchased as a kit from Promega) measures the formation of an aqueous soluble formazan (detected by a plate reader at 490nm) produced by the bioreduction of a tetrazolium compound (MTS) in metabolically active cells via mitochondrial succinate dehydrogenase. After determining linearity of the substrate incubation time over a range of cell plating densities, the amount of product measured is directly proportional to cell number. MTS (333 ug/ml) and 25 μM phenazine methosulfate are mixed and added directly to the culture medium, and incubated at 37° C. in the 5% CO2 /95% air incubator for 0.5-4 h. Absorbance of the product at 490 nm is read on the BIO-TEK plate reader. Background values were obtained from wells containing culture medium with substrate solution, but no cells. In addition, values were also obtained from wells containing cells plated at day 0 and assayed on the day compound was added (day 1) in order to determine the number of cells at the time compound was added. After the initial dose-finding experiment was completed, subsequent experiments were set up so that there were 3 or more concentrations near the predicted IC50.

[3] = tested on: chick dorsal root ganglion neurons; test: DRG Neurite Outgrowth Assay; format: cell-based; conditions: compound concentration 200 nM; 48 hours
Procedure: Fused pyrrolocarbazoles promoted nerve fiber (i.e., neurite) outgrowth in explant (i.e., primary) cultures of chick dorsal root ganglion neurons. Dorsal root ganglion (i.e., DRG) nerve fiber outgrowth was increased when a fused pyrrolocarbazole was added to cultures at a concentration of 200 nM (Table IV). Control cultures consisted of: 1) no added NGF or fused pyrrolocarbazole ("Control"), or 2) 50 ng/ml NGF, a neurotrophin known to promote neurite extension in DRG cultures ("NGF").
Methods: Dorsal root ganglia were dissected from chick embryos (embryonic day 9) and individual ganglia were plated on poly-1-ornithine and laminin coated plates. A fused pyrrolocarbazole or 50ng/ml NGF was each added to independent cultures after allowing a 1-2 hour cell attachment period. Explants were cultured for 48 hours in serum-free N2 medium supplemented with 0.05% BSA (Bottenstein et al., PNAS USA 76:514-517 (1979)). Cultures were maintained at 37° C. in a humidified atmosphere, 5% CO2 /95% air. Nerve fiber outgrowth was assessed by the density and length of neurites. It should be apparent to those skilled in the art that neurite extension assays are semi-quantitative and involve a visual comparison between control and experimental neuronal cell cultures (Alberts et al., Molecular Biology of the Cell, 2ed. Garland Publishing, Inc., New York (1989).

IC50 (protein kinase C): 110 nM
IC50 (AT-2 cells): 4600 nM
Structure (SMILES): O=C1NCc2c1c1c(c3[nH]c4ccccc4c23)Cc2ccccc2-1 [Compound I-2]
ChAT Activity (% of Control) ([1]; 100 nM): inactive
ChAT Activity (% of Control) ([1]; 1000 nM): inactive
activity at 0.25 µM ([1]; Rattus norvegicus, 120 h, 250 nM, read-out: ChAT Activity (% of Control)): 137%
activity at 0.5 µM ([1]; Rattus norvegicus, 120 h, 500 nM, read-out: ChAT Activity (% of Control)): 137%
Spinal Cord ChAT Activity, % of Control, untreated cultures [2]: 160 % of Control
DRG Neurite Outgrowth [3]: modest to dense outgrowth of neurites
